Data as given in patent US7566733B2, “Benzimidazole derivatives useful as selective androgen receptor modulators (sarms)” (priority 2004, dated 2009).

These molecules were tested on castrated male Sprague Dawley rats (assay: Ventral Prostate and Seminal Vesicle Weight In Vivo Assay). Settings: inhibition of testosterone-enhanced prostate weight; immature castrated rats, once daily for five days, usually orally 40 mg/kg, with testosterone propionate 2 mg/kg s.c.
Experimental: Ventral Prostate and Seminal Vesicle Weight In Vivo Assay; also: key: active: the non weight adjusted prostate weight was ≦40 mg or the % Inhibition prostate weight, body weight adjusted was ≧40%@2 mg/day dosage; inactive: did not meet the specified criteria defined above
Immature (approximately 50 g) castrated male Sprague Dawley rats (Charles River) were treated once daily for five days with test compound (usually given orally at 40 mg/kg in a volume of 0.3 mL, in 30% cyclodextrin or 0.5% methylcellulose vehicle) and with testosterone propionate (given subcutaneously by injection at the nape of the neck at 2 mg/kg, in a volume of 0.1 mL in sesame oil). On the sixth day, the rats were euthanized by asphyxiation in carbon dioxide. Ventral prosatates and seminal vesicles were removed and their wet weights determined. Test compound activity was determined as the percent inhibition of testosterone-enhanced tissue weights, with a vehicle-treated control group set to zero percent and a testosterone alone-treated control group set to 100%.
Representative compounds of the present invention were tested according to the procedure described, with results as listed in Table 7 below. A test compound is listed as “active” if the non weight adjusted prostate weight was ≦40 mg or the % Inhibition prostate weight, body weight adjusted was ≧40%@2 mg/day dosage. ID50's, if determined, of ≦15 mg/day also indicated an “active” compound.
`OC(c1nc2cc(Cl)c(Cl)cc2[nH]1)C(F)(F)F` (racemic) [Compound 59, 1-(5,6-DiChloro-1H-benzoimidazol-2-yl-)2,2,2-trifluoro-ethanol] was tested, and the Activity was “active”. `ON=C(c1nc2cc(Cl)c(Cl)cc2[nH]1)C(F)(F)F` (racemic) [Compound 141, 1-(5,6-Dichloro-1H-benzoimidazol-2-yl)-2,2,2-trifluoro-ethanone Oxime] was tested, and the Activity was “active”. `CC(O)(Cc1cccc(F)c1)c1nc2cc(Cl)c(Cl)cc2[nH]1` (centres unmarked) [Compound 3] was tested, and the Activity was “inactive”. `CC(O)(CO)c1nc2cc(Cl)c(Cl)cc2[nH]1` (centres unmarked) [Compound 4] was tested, and the Activity was “active”. `Cn1c(C(C)(O)CC#N)nc2cc(Cl)c(Cl)cc21` (centres unmarked) [Compound 8] was tested, and the Activity was “active”. For `Cn1c(C(C)(O)C(F)(F)F)nc2cc(Cl)c(Cl)cc21` (centres unmarked) [Compound 9], the Activity was “active”. For `CCOCC(C)(O)c1nc2cc(Cl)c(Cl)cc2n1C` (centres unmarked) [Compound 10], the Activity was “inactive”. With `CCn1c(C(C)(O)C(F)(F)F)nc2cc(Cl)c(Cl)cc21` (centres unmarked) [Compound 13] the Activity was “active”. In the case of `CCCn1c(C(C)(O)C(F)(F)F)nc2cc(Cl)c(Cl)cc21` (centres unmarked) [Compound 14], the Activity is reported as “active”. For `CCCCn1c(C(C)(O)C(F)(F)F)nc2cc(Cl)c(Cl)cc21` (centres unmarked) [Compound 15], the Activity was “active”. For `CCn1c(C(C)(O)CC#N)nc2cc(Cl)c(Cl)cc21` (centres unmarked) [Compound 16], the Activity was “active”. `CCn1c(C(C)(O)COC)nc2cc(Cl)c(Cl)cc21` (centres unmarked) [Compound 17] was tested, and the Activity was “inactive”. For `Cn1c(C(C)(O)CCl)nc2cc(Cl)c(Cl)cc21` (centres unmarked) [Compound 18, 1-Chloro-2-(5,6-dichloro-1-methyl-1H-benzoimidazol-2-yl)-propan-2-ol], the Activity was “active”. With `CC(O)(c1nc2cc(Cl)c(Cl)cc2[nH]1)C(F)(F)F` (centres unmarked) [Compound 20] the Activity was “inactive”. For `CCSCC(C)(O)c1nc2cc(Cl)c(Cl)cc2n1C` (centres unmarked) [Compound 25, 2-(5,6-Dichloro-1-methyl-1H-benzoimidazol-2-yl)-1-ethylsulfanyl-propan-2-ol], the Activity was “active”. For `CC(O)(Cc1nc2cc(Cl)c(Cl)cc2[nH]1)C(F)(F)F` (centres unmarked) [Compound 27, 3-(5,6-Dichloro-2-1H-benzoimidazol-2-yl)-1,1,1-trifluoro-2-methyl-propan-2-ol], the Activity was “active”. With `COC(C)(CC#N)c1nc2cc(Cl)c(Cl)cc2n1C` (centres unmarked) [Compound 28] the Activity was “active”. For `CCSCC(C)(O)c1nc2cc(Cl)c(Cl)cc2n1CC` (centres unmarked) [Compound 31, 2-(5,6-Dichloro-1-ethyl-1H-benzoimidazol-2-yl)-1-ethylsulfanyl-propan-2-ol], the Activity was “active”. For `Cn1c(CC(C)(O)C(F)(F)F)nc2cc(Cl)c(Cl)cc21` (centres unmarked) [Compound 33], the Activity was “active”. `CCn1c(CC(C)(O)C(F)(F)F)nc2cc(Cl)c(Cl)cc21` (centres unmarked) [Compound 37] was tested, and the Activity was “active”. For `FC(F)(F)Cc1nc2cc(Cl)c(Cl)cc2[nH]1` [Compound 41, 5,6-Dichloro-2-(2,2,2-trifluoro-ethyl)-1H-benzoimidazole], the Activity was “active”. `CCn1c(C(C)(O)CSCC(F)(F)F)nc2cc(Cl)c(Cl)cc21` (centres unmarked) [Compound 44, 2-(5,6-Dichloro-1-ethyl-1H-benzoimidazol-2-yl)-1-(2,2,2-trifluoro-ethylsulfanyl)-propan-2-ol] was tested, and the Activity was “inactive”. In the case of `Cn1c(C(C)(O)CS(=O)(=O)Cc2ccccc2)nc2cc(Cl)c(Cl)cc21` (centres unmarked) [Compound 45, 2-(5,6-Dichloro-1-methyl-1H-benzoimidazol-2-yl)-1-phenylmethanesulfonyl-propan-2-ol], the Activity is reported as “inactive”. In the case of `CCn1c(C(C)(O)CS(=O)(=O)CC)nc2cc(Cl)c(Cl)cc21` (centres unmarked) [Compound 48, 2-(5,6-Dichloro-1-ethyl-1H-benzoimidazol-2-yl)-1-ethanesulfonyl-propan-2-ol], the Activity is reported as “active”. `CCn1c(C(C)(O)CS(=O)(=O)CC(F)(F)F)nc2cc(Cl)c(Cl)cc21` (centres unmarked) [Compound 49, 2-(5,6-Dichloro-1-ethyl-1H-benzoimidazol-2-yl)-1-(2,2,2-trifluoro-ethanesulfonyl)-propan-2-ol] was tested, and the Activity was “inactive”. `CC(=O)Nc1ccc(SCC(C)(O)c2nc3cc(Cl)c(Cl)cc3n2C)cc1` (centres unmarked) [Compound 56, N-{4-[2-(5,6-Dichloro-1-methyl-1H-benzoimidazol-2-yl)-2-hydroxy-propylsulfanyl]-phenyl}-acetamide] was tested, and the Activity was “inactive”. In the case of `COCn1c(CC(F)(F)F)nc2cc(Cl)c(Cl)cc21` [Compound 57, 5,6-Dichloro-1-methoxymethyl-2-(2,2,2-trifluoro-ethyl)-1H-benzoimidazole], the Activity is reported as “active”. `CSCn1c(CC(F)(F)F)nc2cc(Cl)c(Cl)cc21` [Compound 58, 5,6-Dichloro-1-methylsulfanylmethyl-2-(2,2,2-trifluoro-ethyl)-1H-benzoimidazole] was tested, and the Activity was “active”. In the case of `COC(c1nc2cc(Cl)c(Cl)cc2n1C)C(F)(F)F` (centres unmarked) [Compound 61], the Activity is reported as “active”. For `CCOC(c1nc2cc(Cl)c(Cl)cc2n1CC)C(F)(F)F` (centres unmarked) [Compound 62], the Activity was “active”. For `FC(F)(F)Cc1nc2cc(Cl)c(C(F)(F)F)cc2[nH]1` [Compound 68], the Activity was “active”. With `N#Cc1cc2nc(CC(F)(F)F)[nH]c2cc1C(F)(F)F` [Compound 69] the Activity was “inactive”. For `Cn1c(CC(F)(F)F)nc2cc(Cl)c(Cl)cc21` [Compound 71, 5,6-Dichloro-1-methyl-2-(2,2,2-trifluoro-ethyl)-1H-benzoimidazole], the Activity was “active”. In the case of `FC(F)(F)Cc1nc2cc(Cl)c(Cl)cc2n1COc1ccc(Cl)cc1` [Compound 72], the Activity is reported as “inactive”. `CS(=O)(=O)Cn1c(CC(F)(F)F)nc2cc(Cl)c(Cl)cc21` [Compound 73, 5,6-Dichloro-1-methanesulfonylmethyl-2-(2,2,2-trifluoro-ethyl)-1H-benzoimidazole] was tested, and the Activity was “active”. With `O=C(Cn1c(CC(F)(F)F)nc2cc(Cl)c(Cl)cc21)c1ccccc1` [Compound 74, 2-[5,6-Dichloro-2-(2,2,2-trifluoro-ethyl)-benzoimidazol-1-yl]-1-phenyl-ethanone] the Activity was “inactive”. `O=C(Cn1c(CC(F)(F)F)nc2cc(Cl)c(Cl)cc21)c1ccc(F)cc1` [Compound 75, 2-[5,6-Dichloro-2-(2,2,2-trifluoro-ethyl)-benzoimidazol-1-yl]-1-(4-fluoro-phenyl)-ethanone] was tested, and the Activity was “active”. In the case of `O=C(Cn1c(CC(F)(F)F)nc2cc(Cl)c(Cl)cc21)c1ccc([N+](=O)[O-])cc1` [Compound 76, 2-[5,6-Dichloro-2-(2,2,2-trifluoro-ethyl)-benzoimidazol-1-yl]-1-(4-nitro-phenyl)-ethanone], the Activity is reported as “active”. `COc1ccc(C(=O)Cn2c(CC(F)(F)F)nc3cc(Cl)c(Cl)cc32)c(OC)c1` [Compound 77, 2-[5,6-Dichloro-2-(2,2,2-trifluoro-ethyl)-benzoimidazol-1-yl]-1-(2,4-dimethoxy-Phenyl)-ethanone] was tested, and the Activity was “inactive”. In the case of `O=C(Cn1c(CC(F)(F)F)nc2cc(Cl)c(Cl)cc21)c1ccc(Br)cc1` [Compound 79, 1-(4-Bromo-phenyl)-2-[5,6-dichloro-2-(2,2,2-trifluoro-ethyl)-benzoimidazol-1-yl]-ethanone], the Activity is reported as “inactive”. `CCC(=O)Cn1c(CC(F)(F)F)nc2cc(Cl)c(Cl)cc21` [Compound 80, 1-[5,6-Dichloro-2-(2,2,2-trifluoro-ethyl)-benzoimidazol-1-yl]-butan-2-one] was tested, and the Activity was “active”.
